Measurements from PubChem BioAssay (NCI).
Where “and” joins values, the source holds several entries; their conditions need not be identical. Equal values may be shown once.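 1) Cells in 96-well plates. 2) Compound, 48 h, 5 concentrations. 3) Linear interpolation between surrounding doses. 4) Unreached endpoint = highest concentration. GI50 = concentration required for 50% inhibition of growth. At the TGI there is no net growth.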

Key:
Experiment in all cases: NCI-60 cell line screen, 48 h
[1] = tested on: LOX IMVI melanoma
[2] = tested on: UACC-62 melanoma
[3] = tested on: SN12C renal
[4] = tested on: MDA-MB-231 breast
[5] = tested on: OVCAR-4 ovarian
[6] = tested on: SW-620 colon
[7] = tested on: PC-3 prostate
[8] = tested on: ACHN renal
[9] = tested on: MOLT-4 leukemia
[10] = tested on: SK-MEL-2 melanoma

| SMILES | GI50 [1] | TGI [1] | GI50 [2] | TGI [2] | GI50 [3] | TGI [3] | GI50 [4] | TGI [4] | GI50 [5] | TGI [5] | GI50 [6] | TGI [6] | GI50 [7] | TGI [7] | GI50 [8] | TGI [8] | GI50 [9] | TGI [9] | GI50 [10] | TGI [10] |
| --- | --- | --- | --- | --- | --- | --- | --- | --- | --- | --- | --- | --- | --- | --- | --- | --- | --- | --- | --- | --- |
| C#CCN(CCCOc1ccc(Cl)cc1Cl)CCCSC(=O)CCCCCN1/C(=C\C=C2/CCCC(/C=C/C3=[N+](CCCCCC(=O)[O-])c4ccccc4C3(C)C)=C2Cl)C(C)(C)c2ccccc21 | 1.46 µM | 2.83 µM | 1.15 µM | 3.14 µM | 0.587 µM | 2.74 µM | 1.94 µM | 4.64 µM | 2.02 µM | 6.72 µM | 1.65 µM | 5.44 µM | 1.69 µM | 4.01 µM | 2.65 µM | 7.5 µM | 1.48 µM | > 100 µM | 1.77 µM | 4.2 µM |
| CN1CCC(C(=O)Nc2n[nH]c3nnc(-c4ccccc4)cc23)CC1 | 20.3 µM | > 25 µM | > 25 µM | > 25 µM | > 25 µM | > 25 µM | > 25 µM | > 25 µM | > 25 µM | > 25 µM | > 25 µM | > 25 µM | > 22.7 µM | > 25 µM | > 25 µM | > 25 µM | > 25 µM | > 25 µM | > 20.1 µM | > 25 µM |
| Cc1nc2sc(C(=O)Nc3cccc(Cl)c3)c(N)c2cc1C(O)c1ccccc1 (stereo not drawn) | 0.687 µM | 22.5 µM | 0.757 µM | 16 µM | 0.976 µM | 13.6 µM | 2.52 µM | 16.9 µM | 4.64 µM | 31.2 µM | 0.351 µM | 19.7 µM | 2.78 µM | 25.1 µM | 0.884 µM | 13.4 µM | 0.611 µM | > 100 µM | 2.43 µM | 26.5 µM |
| O=C([CH-]C(=O)c1ccccc1)c1ccccc1.[CH2-]C.[CH2-]C.[Tl+3] | 10.4 µM | 54.7 µM | 20.8 µM | 87.6 µM | 14.4 µM | > 100 µM | > 100 µM | > 100 µM | 16.8 µM | > 100 µM | 26.5 µM | > 100 µM | 32 µM | > 100 µM | 24.5 µM | 98.7 µM | 6.63 µM | 41.8 µM | 31.6 µM | > 92.4 µM |
| Nc1nc2c([nH]1)c1[nH]c3ccccc3c1c1[nH]c3ccccc3c21 | 16 µM | 32.5 µM | 15.9 µM | 30 µM | 15.3 µM | 29.7 µM | 4.39 µM | 16.9 µM | 15.4 µM | 35.3 µM | 3.31 µM | 12.4 µM | 11 µM | 23.1 µM | 12 µM | 24.4 µM | 1.89 µM | 6.16 µM | 16.2 µM | 32.4 µM |
| COC(=O)c1sc(=S)c2sc(C(=O)OC)c(C(=O)OC)c2c1C(=O)OC | 46.3 µM | > 100 µM | 36 µM | > 100 µM | 30.7 µM | > 100 µM | 36.3 µM | > 100 µM | 82.2 µM | > 100 µM | 74.8 µM | > 100 µM | 37.2 µM | > 100 µM | 40.3 µM | > 100 µM | 36.9 µM | > 100 µM | 38.7 µM | > 100 µM |
| CC(=O)OCCc1cc2ccccc2oc1=O |  | > 100 µM |  | > 100 µM |  | > 100 µM |  | > 100 µM |  | > 100 µM |  | > 100 µM |  | > 100 µM |  | > 100 µM |  | > 100 µM |  | > 100 µM |
| CC(C)OC(=O)c1cc(NC(=S)OC(C)C)ccc1Cl |  | 31.2 µM |  | 31.2 µM |  | 34.4 µM |  | 30.4 µM |  | > 56 µM |  | > 64.6 µM |  | 50.9 µM |  | > 59.7 µM |  | > 79.2 µM |  | 51.6 µM |
| CC(C)(C)c1cnc(CSc2cnc(NC(=O)C3CCNCC3)s2)o1 | 0.218 µM and 0.131 µM | 14.5 µM and > 10 µM | 0.16 µM and 0.178 µM | 0.403 µM and 0.702 µM | 0.262 µM and 0.215 µM | > 63.3 µM | 0.214 µM and 0.234 µM | 5.34 µM and > 6.43 µM | 0.273 µM and 0.281 µM | 2.67 µM and > 8.21 µM | 0.256 µM and 0.274 µM | > 100 µM | 0.21 µM and 0.19 µM | 2.81 µM and > 9 µM | 2.12 µM and 2.14 µM | > 52.1 µM | 0.351 µM and 0.248 µM | 17.3 µM and > 2.99 µM | 0.124 µM and 0.197 µM | 0.284 µM and 0.518 µM |
| Cc1nc(Nc2ccc(Cl)c(Cl)c2)sc1C(/C=C/c1ccc2c(c1)OCO2)=N/Nc1ccc([N+](=O)[O-])cc1[N+](=O)[O-] |  | > 100 µM |  | > 88 µM |  | > 100 µM |  | > 100 µM |  | > 100 µM |  | > 100 µM |  | > 100 µM |  | > 100 µM |  | > 56.2 µM |  | > 100 µM |
| c1ccc(-c2nc3ccccc3[nH]2)c(OCCCCCOc2ccccc2-c2nc3ccccc3[nH]2)c1 | 12.9 µM | 29.8 µM | 12.8 µM | 27.6 µM | 8.55 µM | 24.5 µM | 12.2 µM | 29.3 µM | 2.92 µM | 8.97 µM | 3.18 µM | 12.9 µM | 7.64 µM | 96.8 µM | 13.1 µM | 26.9 µM | 5.58 µM | 47.5 µM | 8.96 µM | 24.6 µM |
| COc1cc(OC)c(OC)cc1/C=C\c1ccnc2ccccc12 |  | > 42.5 µM |  | > 67.9 µM |  | > 100 µM |  | 28.8 µM |  | > 100 µM |  | > 63.1 µM |  | > 100 µM |  | > 100 µM |  | > 90.2 µM |  | 7.4 µM |
| COc1cc2c(cc1OC)C(Sc1ccc(Cl)cc1)c1c(nc(N)c(C#N)c1N)O2 (stereo not drawn) | 1.09 µM | 2.35 µM | 1.27 µM | 2.66 µM | 1.51 µM | 2.94 µM | 1.37 µM | 2.76 µM | 1.53 µM | 2.96 µM | 1.37 µM | 3.14 µM | 1.56 µM | 3.07 µM | 1.59 µM | 2.95 µM | 0.917 µM | 4.89 µM | 1.2 µM | 2.55 µM |
| COc1ccc(-c2nc3sccn3c2/C=C/C(=O)c2cc(OC)c(OC)c(OC)c2)cc1 | 2.11 µM | 6.59 µM | 2.08 µM | 9.15 µM | 3 µM | > 100 µM | 3.28 µM | > 100 µM | 3.21 µM | > 100 µM | 3.01 µM | > 100 µM | 2.97 µM | > 38.7 µM | 3.45 µM | > 60.9 µM | 2.24 µM | 23.7 µM | 3.58 µM | > 26.3 µM |
| CC(C)(C)OC(=O)CC(S(=O)(=O)c1ccccc1)S(=O)(=O)c1ccccc1 | 13.8 µM | 33.2 µM | 11.4 µM | 24.1 µM | 15.4 µM | 29.6 µM | 12 µM | 25.7 µM | 1.96 µM | 4.58 µM | 1.64 µM | 3.17 µM | 15.1 µM | 29.7 µM | 1.75 µM | 3.19 µM | 2.42 µM | 5.57 µM | 17 µM | 36.2 µM |
| C=C1CCC2C(C)(CO)C(O)CCC2(C)C1C/C=C1\C(=O)OCC1O (stereo not drawn) |  | 30.4 µM |  | 57.5 µM |  | 35.8 µM |  | 58.9 µM |  | 23.5 µM |  | 24 µM |  | 71.6 µM |  | > 100 µM |  | > 100 µM |  | 30.8 µM |
| O=C(/C=C/c1ccccn1)c1ccccc1 | 1.63 µM | 3.08 µM | 2.33 µM | 7 µM | 4.33 µM | 17.1 µM | 9.92 µM | 23.8 µM | 5.06 µM | 18.3 µM | 2.02 µM | 4.1 µM | 4.22 µM | 17 µM | 2.44 µM | 6.2 µM | 3.1 µM | 27.6 µM | 8.32 µM | 21 µM |
| COc1cc(C(=O)/C=C/c2c(C)n([O-])c3ccc(Cl)cc3[n+]2=O)cc(OC)c1OC | 5.78 µM | > 100 µM | 3.87 µM | 23.1 µM | 10.4 µM | > 100 µM | 12.9 µM | > 100 µM | 9.29 µM | > 100 µM | 2.57 µM | 11.7 µM | 26.9 µM | > 100 µM | 4.37 µM | 18 µM | 3.06 µM | 27.9 µM | 17 µM | 81.3 µM |
| Clc1cc(Cl)cc(Nc2ccc3c(OCCCN4CCOCC4)cccc3n2)c1 | 1.72 µM | 3.24 µM | 2.01 µM | 4.57 µM | 10.8 µM | 26.8 µM | 1.8 µM | 3.94 µM | 10.3 µM | 22.2 µM | 1.86 µM | 3.69 µM | 1.94 µM | 4.69 µM | 3.02 µM | 10.3 µM | 2.25 µM | 5.61 µM | 3.45 µM | 9.51 µM |
| Cc1cc(=O)[nH]c2c1C(=O)c1c(C)cc(=O)n(C)c1C2=O |  | 0.26 µM |  | 0.0332 µM |  | 0.195 µM |  | 0.789 µM |  | 0.378 µM |  | 0.179 µM |  | 0.391 µM |  | 0.223 µM |  | > 3.56 µM |  | 0.0592 µM |
| N#CC(C#N)=C/C=C/c1ccccc1[N+](=O)[O-] |  | 7.09 µM |  | 9.39 µM |  | > 10 µM |  | 7.01 µM |  | > 10 µM |  | > 10 µM |  | > 10 µM |  | > 10 µM |  | > 10 µM |  | > 10 µM |
| Nc1c([N+](=O)[O-])ncn1C1OC(CO)C(O)C1O (stereo not drawn) | > 100 µM | > 100 µM | > 100 µM | > 100 µM | > 100 µM | > 100 µM | > 100 µM | > 100 µM | > 100 µM | > 100 µM | > 100 µM | > 100 µM | > 100 µM | > 100 µM | > 100 µM | > 100 µM | > 100 µM | > 100 µM | > 100 µM | > 100 µM |
| O=[N+]([O-])/C(=C/C=C/c1ccccc1)c1ccccc1 | 1.67 µM | 3.29 µM | 1.55 µM | 3.1 µM | 1.85 µM | 4.03 µM | 1.92 µM | 4.28 µM | 2.47 µM | 7.22 µM | 1.79 µM | 3.67 µM | 1.88 µM | 4.29 µM | 2.14 µM | 5 µM | 1.47 µM | 3.61 µM | 1.67 µM | 3.93 µM |
| CN(C)CC(=O)N1CCc2c([nH]c3ccccc23)C1c1cccnc1 (stereo not drawn) |  | > 100 µM |  | > 100 µM |  | > 100 µM | 21.5 µM | 83.5 µM |  | > 100 µM |  | > 100 µM | 93 µM | > 100 µM |  | > 100 µM |  | > 100 µM | > 100 µM | > 100 µM |
